Data taken from publication PMC9202104 (BMC Biology, 2022).
pEC50, pIC50: −log10 of the molar value.

Key:
[1] = test system: 8 human ZIKV strains (PAN2016, R116265, PAN2015, FLR, R103451, PRVABC59, PLCal_ZV, IbH 30656); test: microbe, parasite or virus in culture; format: cell-based; settings: Zika virus, read-out: Average IC50 (human strains)
Procedure: (§1) After removal of the unbound compounds by centrifugation (after addition of 3% PEG-6000), ZIKV was incubated with Vero E6 cells in 24-well plates at 37°C for 1 h. The cells were then washed with PBS, overlaid with DMEM containing 1% carboxymethyl cellulose and 2% FBS, and cultured at 37°C for 4–5 days, followed by being stained with 0.5% crystal violet. […] Plaques in each well were calculated, and IC50 of compounds for each compound was calculated using the CalcuSyn computer program.

[2] = target: T1, ZIKV NS2B-NS3 protein (Zika virus, UniProt Q32ZE1); test: ELISA binding to ZIKV NS2B-NS3 protein
T1 construct: fused with the genes encoding NS3 protein (residues 1-185) through a linker (Gly4-Thr-Gly4); His6 (C); made in house; host or cells: E. coli
Procedure: Briefly, ELISA plates were coated with each protein (1 μg/ml) at 4°C overnight and were then incubated with blocking buffer containing 2% fat-free milk in PBST (0.05% Tween-20) at 37°C for 2 h. The above compounds, or DMSO control, at serial dilutions were added to the plates and incubated at 37°C for 2 h. After three washes using PBST, the plates were incubated at 37°C for 2 h with ZIKV EDIII-specific human mAb ZKA64-LALA (0.5 μg/ml) (for binding to ZIKV full-length E or EDIII protein), or ZIKV NS2B-NS3-specific mouse sera (for binding to NS2B-NS3 protein). After further washes, the plates were incubated with horseradish peroxidase (HRP)-conjugated anti-human IgG-Fab (1:3,000, Abcam, Cambridge, MS, USA) or anti-mouse IgG (1:3,000, Sigma) antibody at 37°C for 1 h. The plates were incubated with substrate TMB (3,3′,5,5′-tetramethylbenzidine) for 1 min, and the reaction was stopped by addition of 1 N H2SO4. Absorbance at 450 nm (A450 values) was measured by an ELISA microplate reader. Percent binding (% binding) to the E, EDIII, or NS2B-NS3 protein was calculated in the presence or absence of serially diluted compounds using the formula ((1-(E/EDIII/NS2B-NS3-compound)/(E/EDIII/NS2B-NS3))×100), based on which EC50 was calculated using the CalcuSyn program.

[3] = test system: ZIKV mosquito strain MEX 2-81; test: Plaque assay, inhibition of ZIKV infection (strain MEX 2-81); format: cell-based; settings: Zika virus, Vero C1008; plaque assay, Vero E6 cells, mosquito strain; read-out: IC50 MEX 2-81
Procedure: as §1

[4] = target: T2, binding of ZIKV EDIII to EDIII-specific neutralizing mAbs (Zika virus, UniProt A0A024B7W1); test: ELISA competition assay, EDIII-mAb binding; settings: for pIC50: mAb 0.5 μg/mL
T2 construct: EDIII (residues 298-409 in E protein containing a C-terminal human Fc tag); human Fc (C)
Procedure: ELISA was also used to determine the ability of ST087010 to inhibit the binding between ZIKV EDIII and EDIII-specific human mAbs (SMZAb5, ZKA64-LALA, ZV-67, or Z004) or EDI/II-specific human mAb (ZKA78) control. […] The plates were then sequentially incubated with HRP-conjugated anti-human IgG-Fab antibody and TMB substrate, followed by detection of A450 values. Percent inhibition (% inhibition) of compounds was calculated using the formula ((1-(EDIII-mAb-compound)/(EDIII-mAb))×100), and IC50 was obtained using the CalcuSyn computer program.

[5] = Safety profile in pregnant Ifnar1−/− mice and pups; format: in vivo
Procedure: Briefly, groups of 5 pregnant mice (8–12-week-old, E12-14) were i.p. injected with ST087010 (20 or 40 mg/kg of body weight, 200 μl/mouse), or DMSO (negative control), daily for 4 continuous days.

[6] = test system: ZIKV human strain PRVABC59; test: Plaque assay, inhibition of ZIKV infection (strain PRVABC59); format: cell-based; settings: Zika virus, Vero C1008; plaque assay, Vero E6 cells, human strain; read-out: IC50 PRVABC59
Procedure: as §1

[7] = target: T3, ZIKV NS2B-NS3 protease (Zika virus, UniProt Q32ZE1); test: Fluorescence-based NS2B-NS3 protease inhibition assay; format: biochemical
T3 construct: fused with the genes encoding NS3 protein (residues 1-185) through a linker (Gly4-Thr-Gly4); His6 (C); made in house; host or cells: E. coli
Procedure: Substrate (benzoyl-norleucinelysine-lysine-arginine 7-amino-4-methylcoumarine (Bz-Nle-Lys-Lys-Arg-AMC, 4 μM)) (Bachem, Torrance, CA, USA) was added and incubated for 10 min. Fluorescence intensity was then measured at 460 nm (with excitation at 355 nm) using a microplate reader (FLUOstar Omega, BMG Labtech, USA). A total of 10 mM Tris-HCl, 20% glycerol, 1 mM CHAPS, and 5% DMSO (pH 8.5) were used as reaction and dilution buffers. Percent inhibition (% inhibition) of protease activity was measured in the presence or absence of serially diluted compounds based on the formula ((1-(NS2B-NS3-substrate-compound)/(NS2B-NS3-substrate))×100).

[8] = test system: ZIKV human strain R116265; test: Plaque assay, inhibition of ZIKV infection (strain R116265); format: cell-based; settings: Zika virus, Vero C1008, Vero E6 cells
Procedure: as §1

T2 sequence (A0A024B7W1 588-699): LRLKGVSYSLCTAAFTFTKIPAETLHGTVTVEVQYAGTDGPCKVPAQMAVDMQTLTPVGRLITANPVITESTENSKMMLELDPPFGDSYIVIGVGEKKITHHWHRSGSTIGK
T3 sequence (Q32ZE1 1499-1683, added parts left off, change not shown): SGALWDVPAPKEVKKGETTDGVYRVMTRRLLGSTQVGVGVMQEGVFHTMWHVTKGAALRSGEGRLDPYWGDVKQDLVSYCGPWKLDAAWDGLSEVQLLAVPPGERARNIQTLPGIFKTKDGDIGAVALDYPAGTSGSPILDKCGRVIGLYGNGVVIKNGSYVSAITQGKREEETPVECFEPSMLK
T1 sequence (Q32ZE1 1499-1683, added parts left off, change not shown): as above

Cc1cc2c(C(C)C)c(O)c(O)c(/C=N/n3c(=O)[nH][nH]c3=O)c2c(O)c1-c1c(C)cc2c(C(C)C)c(O)c(O)c(/C=N/n3c(=O)[nH][nH]c3=O)c2c1O [ST087010]
pIC50 [1]: 5.54
pEC50 [2]: 4.66
pIC50 [3]: 5.54
Inhibition with EDI/II-specific mAb control ZKA78 ([4]; ELISA competition, ZKA78 did not bind to EDIII): no inhibition
pIC50 ([4]; IC50 blocking EDIII binding to mAb SMZAb5, ELISA competition): 5.24
pIC50 ([4]; IC50 blocking EDIII binding to mAb Z004, ELISA competition): 4.35
pIC50 ([4]; IC50 blocking EDIII binding to mAb ZKA64-LALA, ELISA competition): 5.38
pIC50 ([4]; IC50 blocking EDIII binding to mAb ZV-67, ELISA competition): 5.17
Histopathology of liver, spleen, kidney, and brain of mothers and pups ([5]; 20 or 40 mg/kg, compared to DMSO): did not present pathological changes
Inflammation or cell infiltration in tissues ([5]; low and high doses (20 and 40 mg/kg)): no inflammation or cell infiltration
Serum ALT and creatinine levels vs DMSO ([5]; pregnant mice, 20 mg/kg, 1 day after injection): no significant difference
Serum ALT and creatinine levels ([5]; pregnant mice, 20 or 40 mg/kg, before injection and 4 h, 3 or 5 days after last injection): no significant differences
pIC50 [6]: 5.62
pIC50 [7]: 5.32
pIC50 [8]: 5.54
